In patent publication US5393768A, “Leukotriene antagonists” (Eli Lilly and Company, priority 1993, dated 1995):

Columns and labels:
[1] = tested on: LTD4 evoked contractions of guinea pig ileum; test: Percent inhibition of LTD4 evoked ileal contractions (single submaximal LTD4 response, 5 minute drug exposure); type: cell-based, guinea pig (male, Hartley); settings: Cavia porcellus
Method: Male, Hartley guinea pigs weighing 200-450 grams were killed by decapitation. A section of terminal ileum was removed, the lumen cleaned, and the tissue divided into 2.5 cm. segments. The ilea were mounted in 10 ml. tissue baths containing Krebs-bicarbonate solution of the following composition in mmoles/-liter: KCl, 4.6; CaCl2 ·2H2 O, 1.2; KH2 PO4, 1.2; MgSO4 ·7H2 O, 1.2; NaCl, 118.2; NaHCO3, 24.8; and dextrose, 10.0. The bath fluid was maintained at 37° C. and aerated with 95 percent oxygen and 5 percent CO2. In addition, the buffer contained 1×10^-6 M atropine to reduce ileal spontaneous activity. Isometric measurements were made with a Grass FTO3C force-displacement transducer and recorded on a Grass polygraph as change in grams of force. A passive force of 0.5 g. was applied to the tissues. After an appropriate equilibration period, single submaximal control responses to pure LTD4 were obtained. Following a five minute exposure of the ileum to an experimental drug, the control concentration of LTD was added to the tissue bath. The response of the ileum to LTD4 in the presence of the drug was compared to the response in the absence of the drug.

[2] = molecular target: T1, LTD4 evoked contractions of guinea pig ileum (Cavia porcellus, UniProt Q2NNR5); test: LTD4 antagonism, cumulative concentration-response curves (Schild pA2); type: cell-based; settings: 30 minute incubation, negative log of KB
T1 construct: A section of terminal ileum was removed, the lumen cleaned, and the tissue divided into 2.5 cm. segments; from tissue; host or cells: terminal ileum of male Hartley guinea pigs
T1 sequence (Q2NNR5 1-340): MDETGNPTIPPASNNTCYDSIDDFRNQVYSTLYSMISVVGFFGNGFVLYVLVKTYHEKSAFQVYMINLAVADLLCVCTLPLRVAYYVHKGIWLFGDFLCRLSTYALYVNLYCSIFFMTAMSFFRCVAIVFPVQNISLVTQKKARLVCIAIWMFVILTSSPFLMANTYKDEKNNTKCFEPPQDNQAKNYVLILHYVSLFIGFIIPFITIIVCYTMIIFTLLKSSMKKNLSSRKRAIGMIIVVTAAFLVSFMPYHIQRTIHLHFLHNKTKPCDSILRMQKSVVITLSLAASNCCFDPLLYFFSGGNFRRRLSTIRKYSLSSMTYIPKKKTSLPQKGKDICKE
Method: For some of the drugs in this series a more detailed analysis of LTD4 antagonism was made. In these experiments, cumulative concentration-response curves were obtained to LTD4 in guinea pig ileum and trachea. This was followed by a 30 minute incubation with various concentrations of the experimental drug. The concentration response curve to LTD4 was then repeated in the presence of the antagonist. Only one concentration of antagonist was used on a single tissue. KB values were calculated by the method of Furchgott [Ann. N.Y. Acad. Sci., 139, 553 (1967)] using the following equation. [formula]
Dose ratio refers to the concentration of agonist required to elicit 50 percent of the maximal response (ED50) in the presence of the antagonist divided by the ED50 in the absence of the antagonist. Calculations were performed with the aid of a computer and a digital plotter.

- Kb [2]: 6.31 µM
SMILES: CCCc1c(C[S+]([O-])Cc2ccc(-c3nnn[nH]3)cc2)ccc(C(C)=O)c1O (stereo not shown) [Example 53, 5-[4-(4-Acetyl-3-hydroxy-2-propylbenzylsulfinylmethyl)phenyl]-tetrazole]
- inhibition at 0.1 µM ([1]; Compound concentration 1 × 10^-7 M): 14%
- inhibition at 3 µM ([1]; Compound concentration 3 × 10^-6 M): 39%
- inhibition at 0.3 µM ([1]; Compound concentration 3 × 10^-7 M): 4%
